Data on one molecule can be found in paper PMC8602566 (Frontiers in Oncology, 2021).

Molecules are shown by their SMILES.

Data set [1] deals with Human lung cancer cell line A549. The data set can be described thus: MTT cell viability assay, A549. Type of data set: cell-based. Particulars: A549, MTT, 72 h, read-out: IC50 antiproliferative activity A549. As for the experimental part:
(§1) Cell viability was measured using the 3-(4,5-dimethylthiazol-2-yl)-2,5-diphenyltetrazolium bromide (MTT) assay and was expressed as a ratio to the absorbance value at 570 nm of the control cells.

For data set [2], the system named is Human liver cancer cell line HepG2. Kind of data set: MTT cell viability assay, HepG2. Type of data set: cell-based. Particulars: HepG2, MTT, 72 h, read-out: IC50 antiproliferative activity HepG2. As for the experimental part:
as §1

Data set [3] has as its system Human leukemia cell line K562. Kind of data set: MTT cell viability assay, K562. The settings on record: K562, MTT, 72 h, read-out: IC50 antiproliferative activity K562. It is filed as cell-based. As for the experimental part: as §1
In data set [4] the test system is Human colon carcinoma cell line SW-620. The data set can be described thus: MTT cell viability assay, SW-620. It is filed as cell-based. The settings on record: SW-620, MTT, 72 h, read-out: IC50 antiproliferative activity SW-620. The method, then: as §1
Data set [5] has as its system Human glioblastoma cell line U251. Kind of data set: MTT cell viability assay, U251. Type of data set: cell-based. Particulars: U-251, MTT, 72 h, read-out: IC50 antiproliferative activity U251. The method, then:
as §1
(Formazan colour is commonly taken as a measure of viable cells.)

Data set [6] relates to Human glioma cell line SHG44. The data set can be described thus: MTT cell viability assay, SHG44. It is filed as cell-based. The settings on record: SHG-44, MTT, 72 h, read-out: IC50 antiproliferative activity SHG44. The method, then: as §1
Data set [7] relates to Human glioma cell line LN229. Kind of data set: MTT cell viability assay, LN229. Type of data set: cell-based. The settings on record: LN-229, MTT, 72 h, read-out: IC50 antiproliferative activity LN229. The method, then: as §1
Data set [8] deals with acetylated histone H3 in U87 cells. The data set can be described thus: Western blot analysis for H3-histone acetylation. It is filed as cell-based, Human. The method, then:
U87 cells (5 × 10^5 cells/ml) in six-well plates were incubated with DMC-HA and lysed in radioimmunoprecipitation assay (RIPA) buffer containing protease and phosphatase inhibitors. Protein contents in the lysates were determined by Bradford’s assay, and 50 μg was separated by SDS polyacrylamide gel electrophoresis (SDS-PAGE) electrophoresis. Proteins were transferred to membranes and probed with human anti-acetylated H3 and anti-β actin antibodies as a loading control. Membranes were then labeled with the appropriate horseradish peroxidase (HRP)-conjugated immunoglobulin G (IgG), and protein bands were visualized using enhanced chemiluminescence. (Bio-Rad, Hercules, CA, USA).
Next, DMC-HA-induced acetylation of histone H3 in living cells was analyzed using Western blot method.
(In western blotting, separated proteins are transferred to a membrane and probed.)

In another data set the test system is U87 cells. The data set can be described thus: Cell cycle analysis by flow cytometry. Particulars: 2.5 μM, 36 h (control 4.6%). It is filed as cell-based, Human. As for the experimental part: […] Cells were detached, fixed in 70% ethanol in PBS (−20°C) overnight and resuspended in PBS supplemented with 100 µg/ml RNase and 50 µg/ml PI for 30 min. Cell cycle analysis was performed on a flow cytometry (FACSCalibur BD, BD Biosciences, San Jose, CA, USA).
Inhibition of HDACs results in anticancer effect through various mechanisms, like cell cycle arrest, reduced proliferation, and induction of apoptosis ([30]). Thus, the cell cycle profile of the human GBM cell line U87 treated with DMC-HA was analyzed by using flow cytometry. […] Although in control cells, only 4.6% of cells were in G2/M phase, 14.5% of cells in G2/M phase were found after treatment with 2.5 μM DMC-HA.

A short description of data set [9]: Hepatic microsome stability assay, human. Type of data set: in vitro ADME. The settings on record: human liver microsomes, NADPH, 37°C, pH 7.4. The method, then: Metabolic stability was assessed in the presence of human, mouse, and rat liver microsomes (XenoTech, Lenexa, KS, USA). All liquid dispenses and transfer steps were performed with the Freedom Evo automated liquid handler (Tecan US). Compound stock solutions were initially prepared in 100% DMSO and subsequently diluted in acetonitrile for the assay. The pH of the reactions was kept at 7.4 with potassium phosphate buffer. The reaction wells were prepared by adding microsomes to a well and allowed to warm to 37°C. Then, compound was added to each well. The reactions were […] by adding cofactor reduced nicotinamide adenine dinucleotide phosphate (NADPH) to the reaction well containing microsomes and compounds. Negative controls received buffer only. Immediately after reactions started, 0-min aliquots were promptly collected and mixed in a separate well with ice cold acetonitrile to quench the reactions. The remainder of the reaction volume was incubated at 37°C with shaking. An additional aliquot was collected at 60 min after the start of the reaction and promptly quenched with ice cold acetonitrile. Samples were vortexed and centrifuged at 3,500 rpm for 10 min. The amount of compound in the supernatant was determined by liquid chromatography–tandem mass spectrometry (LC/MS/MS) (Thermo Fischer Scientific, San Jose, CA, USA), and the percent of parent compound remaining after 60 min was calculated. Results are the mean of each reaction triplicate, normalized to the internal standard, and expressed as the percent of compound remaining after the incubation time.
Structures that are active in vitro may not be potent in vivo due to their susceptibility to metabolism in the body. We then thoroughly examined the liver microsomal metabolic stability of DMC-HA across three different species (Table 3). […] In addition, the half-life of DMC-HA in human microsome is generally two to three times longer than those in mice and rats. Collectively, the in vitro liver microsomal stability of DMC-HA is favorable, guaranteeing its further in vivo studies.
Background: Liver microsomes are a subcellular fraction often used to study metabolism.

The nature of data set [10]: Plasma and brain distribution study. Particulars: mice, single administration, i.v. 5 mg/kg or p.o. 10 mg/kg. It is filed as in vivo. The source says:
Discovery of drugs for the treatment of GBM encounters formidable challenges to their ability to cross the blood–brain barrier (BBB) ([31]). Thus, we further investigated the distribution of DMC-HA to identify whether it has the ability to cross the BBB. […] In addition, stable and durable distribution of DMC-HA in the brain was observed after p.o. administration. Nevertheless, optimization for the balance among potency, selectivity, metabolic stability, and brain permeability in a single molecule was challenging. These preliminary results provide valuable information for further structure optimization of DMC-HA and a guidance for its following in vivo studies.
Figure 5 Concentrations of DMC-HA in plasma and brain over time following a single administration in mice. Left, i.v. 5 mg/kg; right, p.o. 10 mg/kg.

A further data set addresses HDAC1 (Homo sapiens, UniProt Q13547). The data set can be described thus: HDACs inhibition assay, HDAC1.
The next data set has as its target HDAC5 (Homo sapiens, UniProt Q9UQL6). Kind of data set: HDACs inhibition assay, HDAC5.
The target of another data set is HDAC6 (Homo sapiens, UniProt Q9UBN7). The data set can be described thus: HDACs inhibition assay, HDAC6.
Sequence of HDAC6 (Q9UBN7 whole entry): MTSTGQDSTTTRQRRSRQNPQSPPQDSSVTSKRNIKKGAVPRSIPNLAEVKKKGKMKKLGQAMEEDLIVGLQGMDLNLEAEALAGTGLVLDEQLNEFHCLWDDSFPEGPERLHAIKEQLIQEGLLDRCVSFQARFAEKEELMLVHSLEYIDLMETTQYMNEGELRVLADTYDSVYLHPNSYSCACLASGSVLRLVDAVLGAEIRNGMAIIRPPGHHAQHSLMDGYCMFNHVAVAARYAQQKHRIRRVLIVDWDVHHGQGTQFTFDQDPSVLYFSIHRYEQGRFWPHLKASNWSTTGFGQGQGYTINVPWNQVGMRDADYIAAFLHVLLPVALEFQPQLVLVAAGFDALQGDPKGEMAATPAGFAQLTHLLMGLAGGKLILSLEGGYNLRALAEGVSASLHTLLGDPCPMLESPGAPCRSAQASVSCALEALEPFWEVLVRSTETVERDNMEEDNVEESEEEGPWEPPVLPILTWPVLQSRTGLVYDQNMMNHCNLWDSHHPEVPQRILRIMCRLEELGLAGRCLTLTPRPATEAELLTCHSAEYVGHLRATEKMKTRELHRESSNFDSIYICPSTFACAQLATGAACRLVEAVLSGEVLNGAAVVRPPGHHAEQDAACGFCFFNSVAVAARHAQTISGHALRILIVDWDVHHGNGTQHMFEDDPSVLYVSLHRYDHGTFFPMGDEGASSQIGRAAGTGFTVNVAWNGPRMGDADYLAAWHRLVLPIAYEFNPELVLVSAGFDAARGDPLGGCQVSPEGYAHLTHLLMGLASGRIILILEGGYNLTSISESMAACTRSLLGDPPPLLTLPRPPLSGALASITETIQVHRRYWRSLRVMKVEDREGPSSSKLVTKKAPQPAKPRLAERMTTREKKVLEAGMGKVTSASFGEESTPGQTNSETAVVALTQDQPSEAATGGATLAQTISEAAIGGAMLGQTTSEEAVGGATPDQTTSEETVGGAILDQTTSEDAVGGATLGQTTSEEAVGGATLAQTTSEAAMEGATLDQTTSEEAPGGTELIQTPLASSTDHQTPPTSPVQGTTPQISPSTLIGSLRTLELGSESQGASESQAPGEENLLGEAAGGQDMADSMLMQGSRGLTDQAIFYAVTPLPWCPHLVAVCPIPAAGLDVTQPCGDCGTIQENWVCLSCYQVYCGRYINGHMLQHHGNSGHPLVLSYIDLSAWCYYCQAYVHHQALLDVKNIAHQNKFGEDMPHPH
A further data set deals with HDAC8 (Homo sapiens, UniProt Q9BY41). The data set can be described thus: HDACs inhibition assay, HDAC8.
Sequence of HDAC8 (Q9BY41 whole entry): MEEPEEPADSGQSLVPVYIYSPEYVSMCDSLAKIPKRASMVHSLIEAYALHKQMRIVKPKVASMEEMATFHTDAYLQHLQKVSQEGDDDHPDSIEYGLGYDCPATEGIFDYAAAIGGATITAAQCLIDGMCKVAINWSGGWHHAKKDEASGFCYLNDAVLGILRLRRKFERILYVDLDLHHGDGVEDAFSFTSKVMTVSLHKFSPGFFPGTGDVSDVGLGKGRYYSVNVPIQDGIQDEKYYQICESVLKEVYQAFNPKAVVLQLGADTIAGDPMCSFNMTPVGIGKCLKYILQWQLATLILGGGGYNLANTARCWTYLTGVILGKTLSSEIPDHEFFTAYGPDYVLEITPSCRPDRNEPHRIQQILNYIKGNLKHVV
For a further data set, the target named is SIRT1 (Homo sapiens, UniProt Q96EB6). Kind of data set: HDACs inhibition assay, SIRT1.
Sequence of SIRT1 (Q96EB6 whole entry): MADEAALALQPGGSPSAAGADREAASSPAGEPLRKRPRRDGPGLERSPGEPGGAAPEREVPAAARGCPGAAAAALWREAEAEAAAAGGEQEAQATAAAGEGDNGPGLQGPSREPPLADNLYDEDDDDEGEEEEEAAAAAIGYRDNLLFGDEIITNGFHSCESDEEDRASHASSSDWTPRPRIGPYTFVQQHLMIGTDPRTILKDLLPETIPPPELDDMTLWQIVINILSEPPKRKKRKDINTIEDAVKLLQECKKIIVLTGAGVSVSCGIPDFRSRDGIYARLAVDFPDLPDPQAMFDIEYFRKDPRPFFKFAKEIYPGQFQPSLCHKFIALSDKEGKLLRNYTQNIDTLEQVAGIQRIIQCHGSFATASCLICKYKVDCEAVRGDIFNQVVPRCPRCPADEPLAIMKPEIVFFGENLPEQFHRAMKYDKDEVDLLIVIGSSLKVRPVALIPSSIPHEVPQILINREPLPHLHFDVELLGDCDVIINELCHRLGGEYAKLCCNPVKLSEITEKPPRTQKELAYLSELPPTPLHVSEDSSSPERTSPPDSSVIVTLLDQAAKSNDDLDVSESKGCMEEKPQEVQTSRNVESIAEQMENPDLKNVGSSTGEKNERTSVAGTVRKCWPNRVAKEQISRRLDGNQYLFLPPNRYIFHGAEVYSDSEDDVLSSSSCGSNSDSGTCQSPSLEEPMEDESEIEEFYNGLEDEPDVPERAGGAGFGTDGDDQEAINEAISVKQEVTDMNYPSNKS

Sequence of HDAC5 (Q9UQL6 whole entry): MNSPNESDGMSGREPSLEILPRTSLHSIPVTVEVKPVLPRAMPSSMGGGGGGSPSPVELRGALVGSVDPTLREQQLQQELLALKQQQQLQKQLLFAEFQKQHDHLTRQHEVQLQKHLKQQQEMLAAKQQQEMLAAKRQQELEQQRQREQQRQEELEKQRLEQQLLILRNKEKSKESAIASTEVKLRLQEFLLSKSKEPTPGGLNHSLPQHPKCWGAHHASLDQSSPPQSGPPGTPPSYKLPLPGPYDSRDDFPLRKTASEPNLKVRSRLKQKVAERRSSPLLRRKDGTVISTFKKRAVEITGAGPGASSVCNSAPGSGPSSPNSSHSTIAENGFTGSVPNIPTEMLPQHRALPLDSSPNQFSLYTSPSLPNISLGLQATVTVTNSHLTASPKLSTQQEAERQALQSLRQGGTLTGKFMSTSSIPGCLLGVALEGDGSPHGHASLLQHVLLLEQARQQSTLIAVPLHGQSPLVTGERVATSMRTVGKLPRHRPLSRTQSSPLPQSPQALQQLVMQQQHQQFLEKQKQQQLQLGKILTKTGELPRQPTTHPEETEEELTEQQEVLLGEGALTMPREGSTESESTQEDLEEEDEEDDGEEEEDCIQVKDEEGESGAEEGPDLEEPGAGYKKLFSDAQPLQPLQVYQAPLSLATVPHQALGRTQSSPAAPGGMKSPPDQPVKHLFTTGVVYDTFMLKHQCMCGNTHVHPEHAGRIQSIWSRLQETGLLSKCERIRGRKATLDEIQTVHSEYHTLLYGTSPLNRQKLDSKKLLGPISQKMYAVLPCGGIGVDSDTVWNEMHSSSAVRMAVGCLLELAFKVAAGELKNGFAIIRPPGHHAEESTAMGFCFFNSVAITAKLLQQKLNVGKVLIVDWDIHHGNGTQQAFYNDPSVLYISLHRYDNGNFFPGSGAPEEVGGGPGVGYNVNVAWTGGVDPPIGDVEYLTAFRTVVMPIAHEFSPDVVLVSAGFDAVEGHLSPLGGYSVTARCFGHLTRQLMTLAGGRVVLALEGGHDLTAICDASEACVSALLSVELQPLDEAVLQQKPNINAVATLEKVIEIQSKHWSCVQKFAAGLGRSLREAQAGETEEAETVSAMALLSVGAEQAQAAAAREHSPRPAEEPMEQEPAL
Sequence of HDAC1 (Q13547 whole entry): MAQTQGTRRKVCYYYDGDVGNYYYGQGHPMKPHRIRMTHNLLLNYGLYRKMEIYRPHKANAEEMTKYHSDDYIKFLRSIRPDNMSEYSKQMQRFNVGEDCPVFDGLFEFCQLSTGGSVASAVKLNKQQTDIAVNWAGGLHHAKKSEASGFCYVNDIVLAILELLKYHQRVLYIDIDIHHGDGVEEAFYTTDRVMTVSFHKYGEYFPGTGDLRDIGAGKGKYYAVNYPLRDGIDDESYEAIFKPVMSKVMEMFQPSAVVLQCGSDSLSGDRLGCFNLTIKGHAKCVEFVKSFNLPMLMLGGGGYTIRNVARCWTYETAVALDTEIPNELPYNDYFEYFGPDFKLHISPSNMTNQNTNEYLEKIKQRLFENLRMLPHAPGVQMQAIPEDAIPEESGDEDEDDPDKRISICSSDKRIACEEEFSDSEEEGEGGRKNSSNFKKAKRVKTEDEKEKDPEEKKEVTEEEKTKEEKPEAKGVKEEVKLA
Protocol for HDAC1: (§2) The inhibition assays for HDACs were carried out according to standard protocols. […] The reaction was stopped by the addition of 45 μl of 100 mM HEPES (pH 7.5) and 0.08% sodium dodecyl sulfate (SDS). The substrate and the product were then separated electrophoretically using a LabChip 3000 system (Caliper Life Sciences, Hopkinton, MA) with blue laser excitation and green fluorescence detection.
Protocol for HDAC5: as §2
Protocol for HDAC6: as §2
Protocol for HDAC8: as §2
Protocol for SIRT1: as §2

With `COc1cc(/C=C/C(=O)CC(=O)/C=C/c2ccc(/C=C/C(=O)NO)cc2)ccc1O` [DMC-HA], the IC50 in [1] turned out to be 5.33 ± 0.93 µM; in data set [2], 4.28 ± 0.52 µM; in [3], 1950 ± 710 nM; in data set [4], 3.22 ± 0.3 µM; in [5], 2990 ± 480 nM; in data set [6], 4.62 ± 0.72 µM. Besides, the IC50 in data set [7] was 3.38 ± 0.29 µM; against HDAC1, 510 nM; on HDAC5, more than 10 µM; at HDAC6, 380 nM; against HDAC8, 2930 nM; at SIRT1, more than 10 µM. For the same molecule, the “acetylation of histone H3, time dependence” value in [8] (5 μM, different times) was “increased in a time-dependent manner”. Besides, the “acetylation of histone H3, dose dependence” value in data set [8] (various concentrations, 24 h) is “dose dependently increased the acetylation of histone H3”. Besides, the “cells in G2/M phase” value with U87 cells was found to be 14.5%. Besides, the “Human Liver Microsomal Stability T1/2” value in data set [9] is recorded as 91.6 min. Further, the intrinsic clearance (microsomal CLint) in data set [9] amounted to 17.5 µL/min/mg. For the same molecule, in data set [10], the “ability to cross the BBB” value was “can indeed penetrate the BBB”. In [10] (mouse, brain and plasma, other: intravenous and oral (i.v. and p.o. arms), over time, read-out: brain-to-plasma ratios), the Kp was 0.08 to 0.23.

By IC50 is commonly meant the concentration needed to halve the response being measured. As usually defined, the microsomal CLint is the rate of metabolic loss divided by the concentration.
